Test results as given in patent publication US20110076272A1, “THERAPEUTIC METHODS AND COMPOSITIONS” (priority 2009, published 2011).

Assays:
[1] = test system: purified recombinant human LOXL2; assay: Amplex Red assay of LOXL2 enzymatic activity; assay type: biochemical
Description: A mouse anti-human LOXL2 antibody (AB0023) was obtained by immunization with full-length LOXL2 protein and purified by SEC-HPLC (Tosoh TSKGEL G3000SWXL 7.8×300). Analytical size exclusion chromatography was used to assess antibody stability and purity. Purified AB0023 was run on SDS-PAGE Coomassie (Invitrogen BT 4-12% Gels) reducing and non-reducing gels to assess purity. Potency was examined by ELISA to determine Kd, and effect on LOXL2 enzymatic activity was determined using an Amplex Red Assay (Molecular Probes/Invitrogen, Carlsbad, Calif.). Antibody concentration was measured by absorbance at 280 nm using an Extinction Coefficient Abs 0.1% of 1.4. Identity was assayed by isoelectric focusing (Invitrogen pH 3-10 IEF Gels). For safety analysis, endotoxin levels were measured at a sensitivity range of 0.01-1 EU/ml (Charles River EndoSafe PTS).

MCF7 cells = assay: Induction of EMT-like phenotype by LOXL2-containing conditioned media (rhodamine-phalloidin staining); assay type: cell-based; conditions: MDA-MB231 or Hs-578t conditioned media; BAPN up to 2 mM
Description: Cells were seeded at 80% confluency, in an 8-chambered slide, 24 hours prior to the day of staining. After 24 hours, media was aspirated and the chambers were washed with PBS. Cells were then fixed with 4% Parafomaldehyde (PFA) for 20 minutes at room temperature and then permeabilized with 0.5% Saponin (JT Baker, Phillipsburg, N.J.) for 5 minutes at room temperature. Cells were then stained for 15 minutes at room temperature with a 1:100 dilution of rhodamine phalloidin (Invitrogen, Carlsbad, Calif.). Slides were mounted with Vectashield (Vector Laboratories, Burlingame, Calif.).
MCF7 or SW620 cells were seeded at 50,000 cells per well of an 8-chambered culture slide in HGDMEM (high-glucose Dulbecco's modified Eagle's medium containing 4.5 g/l glucose)+10% FBS, 2 mM L-glutamine, 24 hours prior to being exposed to conditioned medium (CM). 500 uls of fresh conditioned medium from MDA MB 231 cells was added to the chambers containing MCF7 cells. The cells were incubated with the CM for 48-96 hours. Conditioned medium from MCF7 or SW620 cells was used as a negative control. After 48-96 hours incubation with CM, the cells were stained with rhodamine-phalloidin as described above.

[2] = test system: MDA-MB-435 established primary tumors; assay: MDA-MB-435 established primary tumor xenograft model; assay type: in vivo, mouse; conditions: independent study; AB0023 5 mg/kg twice per week, BAPN 100 mg/kg daily
[3] = test system: MDA-MB-435 established primary tumors; assay: as above; assay type: in vivo, mouse; set-up: reduction in activated TAFs assessed by aSMA signal / reduction in VEGF signal versus vehicle-treated tumors / reduction in SDF-1/CXCL12 signal / reduction in LOXL2 signal: concentration or dose not given beside the values
Description: To provide growing tumor tissue stock for subsequent orthotopic implantation, five- to six-week-old nude mice (NCr nu/nu) were injected subcutaneously with 2×10^6 MDA-MB-435-GFP cells (Anticancer, Inc., San Diego, Calif.) on the right flank. For this purpose, cultures of MDA-MB-435-GFP cells were harvested and dissociated by trypsinization, washed three times with cold serum-containing medium, and then kept on ice until injection. Cells were injected into the subcutaneous space of the flank of the animal in a total volume of 0.1 ml, within 30 min of harvesting. The nude mice were sacrificed to harvest tumor tissue 4 to 6 weeks after tumor cell injection for surgical orthotopic implantation (SOI) of tumor fragments.
Tumor pieces (˜1 mm^3), extracted from subcutaneously-growing GFP-expressing breast tumors, were implanted by surgical orthotopic implantation (SOI) on the breast of female nude mice (NCr nu/nu). Treatments with AB0023 (anti-LOXL2 monoclonal antibody), M64 (anti-LOX monoclonal antibody) and vehicle (all via intraperitoneal injection) and with Taxotere (by intravenous injection) were initiated when the average primary tumor volume reached 75 mm^3. Mice were administered the antibodies at a dose of 30 mg/kg twice a week for 28 days and Taxotere, at 10 mg/kg, was administered once a week for 3 weeks.
Body weight and tumor size were recorded weekly. At the conclusion of the study, mice were sacrificed by cervical dislocation after being anesthetized with carbon dioxide. Primary breast tumors were imaged, harvested, cut in half symmetrically and snap-frozen for histological and immunohistochemical analyses.
The solutions used for the immunohistochemistry (IHC) protocols were obtained from Biocare Medical (Concord, Calif.) unless otherwise stated. All procedures were performed at room temperature. Slides were fixed with 4% PFA for 10 minutes and were subsequently treated with Peroxidazed-1 (Biocare Medical, Concord, Calif.) for 5 minutes. Then, the slides were background blocked with SNIPER (Biocare Medical, Concord, Calif.) for 10 minutes. Primary antibody (2-5 ug/ml final concentration) was diluted in Da Vinci Green Universal Diluent and applied to slides for 30 minutes. Slides were then rinsed in PBS-Tween-20. The Mach2 polymer kit was used for antigen detection by adding rabbit probe for 30 minutes. DAB chromagen was added to the slides for 3-5 minutes, then slides were rinsed once with deionized water. The slides were then counter-stained with hematoxylin, followed by dehydration with graded alcohol. The slides were mounted with entellan mounting medium (Electron Microscopy Sciences, Hatfield, Pa.).

[4] = target: T1, human lysyl oxidase-like 2 (LOXL2) (human, UniProt Q9Y4K0 26-774); assay: cell-based or functional assay
T1 sequence (looked up): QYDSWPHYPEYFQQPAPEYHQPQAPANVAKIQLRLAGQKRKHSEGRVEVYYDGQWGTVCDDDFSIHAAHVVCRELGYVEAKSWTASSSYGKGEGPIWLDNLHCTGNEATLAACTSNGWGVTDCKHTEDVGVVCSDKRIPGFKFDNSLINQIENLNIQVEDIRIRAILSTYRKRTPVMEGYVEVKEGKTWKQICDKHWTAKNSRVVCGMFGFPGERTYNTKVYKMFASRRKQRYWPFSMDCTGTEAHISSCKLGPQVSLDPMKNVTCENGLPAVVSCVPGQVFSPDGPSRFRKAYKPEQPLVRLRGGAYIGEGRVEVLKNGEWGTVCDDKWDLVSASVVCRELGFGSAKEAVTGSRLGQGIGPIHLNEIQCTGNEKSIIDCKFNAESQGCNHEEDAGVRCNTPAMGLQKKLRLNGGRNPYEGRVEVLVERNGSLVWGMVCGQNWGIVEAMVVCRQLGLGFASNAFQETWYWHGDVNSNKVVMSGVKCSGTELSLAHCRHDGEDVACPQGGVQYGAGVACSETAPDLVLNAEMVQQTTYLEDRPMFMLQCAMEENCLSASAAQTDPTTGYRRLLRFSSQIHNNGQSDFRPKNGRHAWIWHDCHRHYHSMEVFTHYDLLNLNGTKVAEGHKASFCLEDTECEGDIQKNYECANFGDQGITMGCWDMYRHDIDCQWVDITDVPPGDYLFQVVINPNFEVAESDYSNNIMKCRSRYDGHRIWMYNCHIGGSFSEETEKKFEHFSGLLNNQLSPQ

lysyl oxidase (LOX) = target: T2, lysyl oxidase (LOX) (UniProt P28300 169-417, limits assumed); assay: Western blot probed with AB0023 [Cont. 2) panel m]
T2 construct: Member of 'other lysyl oxidase-type enzymes'
T2 sequence (looked up): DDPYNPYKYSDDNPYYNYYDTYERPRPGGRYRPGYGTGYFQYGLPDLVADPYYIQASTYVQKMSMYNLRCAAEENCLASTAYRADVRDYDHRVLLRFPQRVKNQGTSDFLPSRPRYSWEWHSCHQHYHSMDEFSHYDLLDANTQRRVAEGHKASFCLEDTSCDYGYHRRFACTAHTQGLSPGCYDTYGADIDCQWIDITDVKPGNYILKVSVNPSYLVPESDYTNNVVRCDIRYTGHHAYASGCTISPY

[5] = target: T3, lysyl oxidase-like 3 (LOXL3) (UniProt P58215 26-753, limits assumed); assay: Western blot probed with AB0023 [Cont. 2) panel m]
T3 construct: Member of 'other lysyl oxidase-type enzymes'; also called LOR-2
T3 sequence (looked up): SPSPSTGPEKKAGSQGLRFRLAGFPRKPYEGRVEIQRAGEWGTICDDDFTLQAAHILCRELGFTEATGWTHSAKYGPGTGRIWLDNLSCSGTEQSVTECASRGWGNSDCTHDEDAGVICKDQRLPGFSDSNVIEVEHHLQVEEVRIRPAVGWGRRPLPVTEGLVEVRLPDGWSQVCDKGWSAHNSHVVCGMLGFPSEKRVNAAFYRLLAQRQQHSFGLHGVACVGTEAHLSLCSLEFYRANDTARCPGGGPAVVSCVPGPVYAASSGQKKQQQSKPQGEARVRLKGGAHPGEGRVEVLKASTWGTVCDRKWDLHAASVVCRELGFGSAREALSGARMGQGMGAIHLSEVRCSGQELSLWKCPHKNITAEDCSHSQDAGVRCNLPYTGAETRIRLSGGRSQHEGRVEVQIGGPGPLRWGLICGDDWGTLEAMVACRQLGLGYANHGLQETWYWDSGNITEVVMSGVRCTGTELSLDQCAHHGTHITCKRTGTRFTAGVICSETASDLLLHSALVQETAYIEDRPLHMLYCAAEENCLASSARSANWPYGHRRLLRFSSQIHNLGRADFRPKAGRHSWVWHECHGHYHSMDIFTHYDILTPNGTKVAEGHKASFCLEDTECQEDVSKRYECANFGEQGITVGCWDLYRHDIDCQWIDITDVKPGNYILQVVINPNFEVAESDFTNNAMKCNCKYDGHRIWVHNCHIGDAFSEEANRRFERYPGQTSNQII

[6] = target: T4, lysyl oxidase-like 4 (LOXL4) (UniProt Q96JB6 25-756, limits assumed); assay: Western blot probed with AB0023 [Cont. 2) panel m]
T4 construct: Member of 'other lysyl oxidase-type enzymes'
T4 sequence (looked up): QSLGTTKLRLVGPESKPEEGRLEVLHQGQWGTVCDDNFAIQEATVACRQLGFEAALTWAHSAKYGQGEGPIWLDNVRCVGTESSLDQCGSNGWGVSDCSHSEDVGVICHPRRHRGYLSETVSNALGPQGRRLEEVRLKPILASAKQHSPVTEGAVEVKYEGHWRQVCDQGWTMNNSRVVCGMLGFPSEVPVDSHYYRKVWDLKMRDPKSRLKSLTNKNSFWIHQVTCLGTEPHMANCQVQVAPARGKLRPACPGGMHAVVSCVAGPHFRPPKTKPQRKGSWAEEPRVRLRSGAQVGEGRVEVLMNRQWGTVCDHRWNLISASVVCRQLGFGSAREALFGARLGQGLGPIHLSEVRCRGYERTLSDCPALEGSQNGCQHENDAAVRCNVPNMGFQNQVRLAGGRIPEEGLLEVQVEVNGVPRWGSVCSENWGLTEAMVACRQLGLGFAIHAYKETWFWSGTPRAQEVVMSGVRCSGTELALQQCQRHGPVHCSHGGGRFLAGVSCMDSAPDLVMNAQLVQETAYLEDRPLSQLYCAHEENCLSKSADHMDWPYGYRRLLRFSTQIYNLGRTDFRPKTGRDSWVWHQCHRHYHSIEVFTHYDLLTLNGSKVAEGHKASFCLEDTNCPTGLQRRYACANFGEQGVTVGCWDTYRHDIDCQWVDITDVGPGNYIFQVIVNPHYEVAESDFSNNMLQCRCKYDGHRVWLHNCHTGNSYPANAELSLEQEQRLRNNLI

[7] = Pilot repeat-dose studies in cynomolgus monkeys; assay type: in vivo; conditions: repeat dosing at 100 mg/kg

## N#CCCN [BAPN, beta-aminoproprionitrile, reference compound]
[1]
  mode of inhibition of LOXL2: competitive inhibitor
[1]; in vitro
  inhibition of LOXL2 enzymatic activity: inhibited
[1]; in vitro, FIG. 8 panel D
  IC50 for inhibition of LOXL2 (in words): low nanomolar
MCF7 cells
  remodeling of the actin cytoskeleton induced by LOXL2-containing conditioned media: not inhibited
[2]
  reduction in tumor vasculature, CD31 signal: no reduction
  reduction in tumor volume after 46 days: 19%

## CC(=O)O[C@@]12CO[C@@H]1C[C@H](O)[C@@]1(C)C(=O)[C@H](O)C3=C(C)[C@@H](OC(=O)[C@H](O)[C@@H](NC(=O)OC(C)(C)C)c4ccccc4)C[C@@](O)([C@@H](OC(=O)c4ccccc4)[C@H]21)C3(C)C [Taxotere, reference compound]
[3]; mouse, in vivo
  levels of Beclin-1 (autophagy) in tumor cells: increased
[3]; tumors harvested at day 39
  reduction in Sirius red staining (crosslinked collagen, desmoplasia): No significant differences
  reduction in activated TAFs assessed by aSMA signal: No significant differences
  reduction in tumor vasculature, CD31 signal: 43%

B1: anti-LOXL2 monoclonal antibody AB0023 (antibody, V domains shown)
VH: QVQLQQSGAELVRPGTSVKVSCKASGYAFTYYLIEWVKQRPGQGLEWIGVINPGSGGTNYNEKFKGKATLTADKSSSTAYMQLSSLTSDDSAVYFCARNWMNFDYWGQGTTLTVSS
VL: DIVMTQAAPSVSVTPGESVSISCRSSKSLLHSNGNTYLYWFLQRPGQSPQFLIYRMSNLASGVPDRFSGSGSGTAFTLRISRVEAEDVGVYYCMQHLEYPYTFGGGTKLEIK
notes: Mouse monoclonal antibody from a hybridoma, raised against full-length LOXL2 and purified from ascites; also called mouse anti-human LOXL2 antibody; LOXL2-specific monoclonal antibody
[4]
  IC50, HUVEC tube formation assay, FIG. 4 Panel I (mean total tubule length): 33.2 nM
  apparent IC50 for inhibition of purified LOXL2 enzymatic activity: ~30 nM
Lysyl oxidase (LOX)
  binding result: no binding
[5]
  binding result: no binding
[6]
  binding result: no binding

B2: AB0024: humanized anti-LOXL2 variant of AB0023; heavy chain variable region SEQ ID NO:3, light chain SEQ ID NO:4 (antibody, listed as Mus musculus, V domains shown)
VH: QVQLVQSGAEVKKPGASVKVSCKASGYAFTYYLIEWVRQAPGQGLEWIGVINPGSGGTNYNEKFKGRATITADKSTSTAYMELSSLRSEDTAVYFCARNWMNFDYWGQGTTVTVSS
VL: DIVMTQTPLSLSVTPGQPASISCRSSKSLLHSNGNTYLYWFLQKPGQSPQFLIYRMSNLASGVPDRFSGSGSGTDFTLKISRVEAEDVGVYYCMQHLEYPYTFGGGTKVEIK
modifications: Humanized heavy chain; Humanized light chain
[1]
  mode of inhibition of LOXL2: non-competitive allosteric inhibitors
[7]
  tolerability: well tolerated
